Data reported in PubChem BioAssay AID248 (DTP/NCI, 2004).
Values joined by “and” are separate entries in the source; they are usually repeats but may differ in a detail not shown here. Equal values may be shown once. Toxic doses and inconclusive results are not listed. No stated cut-off is given here; in the data, active means T/C of 150% or more; inactive means T/C below 125%.

System: L1210 leukemia ip in BDF1 mice, survival T/C
Test: NCI In Vivo Anticancer Drug Screen. Data for tumor model L1210 Leukemia (intraperitoneal) in B6D2F1 (BDF1) mice
Conditions: endpoint: mean survival time, higher = longer survival
How it was run: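 Tumor was transplanted into mice, which were then dosed with test compound or vehicle alone. Survival was recorded for each group, and the treated figure was expressed relative to the control figure.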

[1] = dose: 100.0 mg/kg/injection, schedule: Q04DX003 (ip), vehicle: Klucel (hydroxypropylcellulose) (HPC)
[2] = dose: 200.0 mg/kg/injection, schedule: Q04DX003 (ip), vehicle: Klucel (hydroxypropylcellulose) (HPC)
[3] = dose: 200.0 mg/kg/injection, schedule: Q01DX009 (ip), vehicle: Klucel (hydroxypropylcellulose) (HPC)
[4] = dose: 100.0 mg/kg/injection, schedule: Q01DX001 (ip), vehicle: saline
[5] = dose: 200.0 mg/kg/injection, schedule: Q01DX001 (ip), vehicle: saline
[6] = dose: 400.0 mg/kg/injection, schedule: Q01DX001 (ip), vehicle: saline
[7] = dose: 100.0 mg/kg/injection, schedule: Q01DX009 (ip), vehicle: saline with Tween-80
[8] = dose: 200.0 mg/kg/injection, schedule: Q01DX009 (ip), vehicle: saline with Tween-80
[9] = dose: 400.0 mg/kg/injection, schedule: Q01DX009 (ip), vehicle: saline with Tween-80
[10] = dose: 25.0 mg/kg/injection, schedule: Q01DX009 (ip), vehicle: Klucel (hydroxypropylcellulose) (HPC)
[11] = dose: 50.0 mg/kg/injection, schedule: Q01DX009 (ip), vehicle: Klucel (hydroxypropylcellulose) (HPC)
[12] = dose: 100.0 mg/kg/injection, schedule: Q01DX009 (ip), vehicle: saline
[13] = dose: 100.0 mg/kg/injection, schedule: Q04DX003 (ip), vehicle: saline
[14] = dose: 200.0 mg/kg/injection, schedule: Q04DX003 (ip), vehicle: saline
[15] = dose: 100.0 mg/kg/injection, schedule: Q01DX001 (ip), vehicle: saline with Tween-80
[16] = dose: 100.0 mg/kg/injection, schedule: Q04DX003 (ip), vehicle: saline with Tween-80
[17] = dose: 200.0 mg/kg/injection, schedule: Q01DX001 (ip), vehicle: saline with Tween-80
[18] = dose: 400.0 mg/kg/injection, schedule: Q01DX001 (ip), vehicle: saline with Tween-80
[19] = dose: 50.0 mg/kg/injection, schedule: Q01DX009 (ip), vehicle: saline

Measured: T/C

O=c1[nH]c(-c2ccc(O)cc2)nc2[nH]ncc12
inactive: [1] 88 % of control | [2] 86 % of control

O=S(=O)(O)CNc1cc(Cl)cc(Cl)c1
inactive: [1] 90 % of control | [3] 93 % of control | [2] 88 % of control | dose: 400.0 mg/kg/injection, schedule: Q01DX009 (ip), vehicle: Klucel (hydroxypropylcellulose) (HPC) 91 % of control | dose: 400.0 mg/kg/injection, schedule: Q04DX003 (ip), vehicle: Klucel (hydroxypropylcellulose) (HPC) 92 % of control

CCOC(=O)CCCCC(N)=O
inactive: [4] 104 % of control | [5] 102 % of control | [6] 101 % of control

CCc1ccc(N=Nc2ccc(Br)cc2)cc1
inactive: dose: 100.0 mg/kg/injection, schedule: Q01DX001 (ip), vehicle: carboxymethylcellulose (CMC) 93 % of control | dose: 200.0 mg/kg/injection, schedule: Q01DX001 (ip), vehicle: carboxymethylcellulose (CMC) 98 % of control | dose: 400.0 mg/kg/injection, schedule: Q01DX001 (ip), vehicle: carboxymethylcellulose (CMC) 98 % of control

CCCCCCCCCCCC[Si](CCCCCCCCCCCC)(c1ccccc1)c1ccccc1
inactive: [7] 91 % of control | [8] 93 % of control | [9] 96 % of control

O=C1NC(=O)C2(CCCCC2)N1
inactive: dose: 6.25 mg/kg/injection, schedule: Q04DX003 (ip), vehicle: Klucel (hydroxypropylcellulose) (HPC) 94 % of control | dose: 12.5 mg/kg/injection, schedule: Q01DX009 (ip), vehicle: Klucel (hydroxypropylcellulose) (HPC) 95 % of control | dose: 12.5 mg/kg/injection, schedule: Q04DX003 (ip), vehicle: Klucel (hydroxypropylcellulose) (HPC) 94 % of control | [10] 96 % of control | dose: 25.0 mg/kg/injection, schedule: Q04DX003 (ip), vehicle: Klucel (hydroxypropylcellulose) (HPC) 87 % of control and 97 % of control | [11] 100 % of control | dose: 50.0 mg/kg/injection, schedule: Q04DX003 (ip), vehicle: Klucel (hydroxypropylcellulose) (HPC) 96 % of control and 101 % of control | dose: 75.0 mg/kg/injection, schedule: Q01DX009 (ip), vehicle: Klucel (hydroxypropylcellulose) (HPC) 102 % of control

Cc1cc(C(N)=O)c(C#N)c(=O)[nH]1
inactive: dose: 75.0 mg/kg/injection, schedule: Q01DX001 (ip), vehicle: steriod suspending solution 94 % of control | dose: 150.0 mg/kg/injection, schedule: Q01DX001 (ip), vehicle: steriod suspending solution 95 % of control

O=C(NC1CCCCC1)Oc1ccc2ccccc2c1
inactive: dose: 100.0 mg/kg/injection, schedule: Q04DX002 (ip), vehicle: Klucel (hydroxypropylcellulose) (HPC) 102 % of control | dose: 200.0 mg/kg/injection, schedule: Q04DX002 (ip), vehicle: Klucel (hydroxypropylcellulose) (HPC) 100 % of control | dose: 400.0 mg/kg/injection, schedule: Q04DX002 (ip), vehicle: Klucel (hydroxypropylcellulose) (HPC) 107 % of control

C[N+](C)(C)CCN=C(N)N[N+](=O)[O-]
inactive: [12] 97 % of control | [13] 97 % of control | dose: 200.0 mg/kg/injection, schedule: Q01DX009 (ip), vehicle: saline 99 % of control | [14] 98 % of control | dose: 400.0 mg/kg/injection, schedule: Q04DX003 (ip), vehicle: saline 98 % of control

OC1CCCCCC2CC12 (centres undefined)
inactive: dose: 25.0 mg/kg/injection, schedule: Q01DX005 (ip), vehicle: saline with Tween-80 86 % of control | dose: 25.0 mg/kg/injection, schedule: Q01DX009 (ip), vehicle: saline with Tween-80 98 % of control | dose: 50.0 mg/kg/injection, schedule: Q01DX005 (ip), vehicle: saline with Tween-80 101 % of control | dose: 50.0 mg/kg/injection, schedule: Q01DX009 (ip), vehicle: saline with Tween-80 91 % of control | dose: 100.0 mg/kg/injection, schedule: Q01DX005 (ip), vehicle: saline with Tween-80 89 % of control and 90 % of control | [7] 91 % of control

CCC(CCc1ccccn1)C(=O)c1ccccc1 (centres undefined)
inactive: dose: 75.0 mg/kg/injection, schedule: Q01DX001 (ip), vehicle: carboxymethylcellulose (CMC) 100 % of control | dose: 150.0 mg/kg/injection, schedule: Q01DX001 (ip), vehicle: carboxymethylcellulose (CMC) 96 % of control | dose: 300.0 mg/kg/injection, schedule: Q01DX001 (ip), vehicle: carboxymethylcellulose (CMC) 94 % of control

CC(C)=CCN1CCC2(C)c3cc(O)ccc3CC1C2C (centres undefined)
inactive: dose: 15.62 mg/kg/injection, schedule: Q04DX003 (ip), vehicle: Klucel (hydroxypropylcellulose) (HPC) 96 % of control | [10] 110 % of control | dose: 31.25 mg/kg/injection, schedule: Q04DX003 (ip), vehicle: Klucel (hydroxypropylcellulose) (HPC) 100 % of control | [11] 110 % of control | dose: 62.5 mg/kg/injection, schedule: Q04DX003 (ip), vehicle: Klucel (hydroxypropylcellulose) (HPC) 100 % of control | dose: 100.0 mg/kg/injection, schedule: Q01DX009 (ip), vehicle: Klucel (hydroxypropylcellulose) (HPC) 110 % of control | dose: 125.0 mg/kg/injection, schedule: Q04DX003 (ip), vehicle: Klucel (hydroxypropylcellulose) (HPC) 94 % of control | [3] 98 % of control | dose: 250.0 mg/kg/injection, schedule: Q04DX003 (ip), vehicle: Klucel (hydroxypropylcellulose) (HPC) 102 % of control

CC(C(O)c1ccccc1)N(C)/N=N/c1nc[nH]c1C(N)=O (centres undefined)
inactive: [15] 92 % of control | [7] 98 % of control | [16] 98 % of control | [17] 90 % of control | [8] 103 % of control | dose: 200.0 mg/kg/injection, schedule: Q04DX003 (ip), vehicle: saline with Tween-80 102 % of control | [18] 92 % of control | [9] 107 % of control | dose: 400.0 mg/kg/injection, schedule: Q04DX003 (ip), vehicle: saline with Tween-80 102 % of control

CC(C)(C)CN
inactive: [19] 98 % of control | [12] 93 % of control | [13] 102 % of control | [14] 98 % of control

Clc1nc2ccccc2[nH]1
inactive: [4] 114 % of control | [5] 105 % of control | [6] 110 % of control

Cc1c(Cl)c(C)c(Sc2c(C)c(Cl)c(C)c(Br)c2O)c(O)c1Br
inactive: dose: 100.0 mg/kg/injection, schedule: Q01DX001 (ip), vehicle: other 87 % of control | dose: 100.0 mg/kg/injection, schedule: Q04DX003 (ip), vehicle: other 100 % of control | dose: 200.0 mg/kg/injection, schedule: Q01DX001 (ip), vehicle: other 88 % of control | dose: 200.0 mg/kg/injection, schedule: Q04DX003 (ip), vehicle: other 107 % of control | dose: 400.0 mg/kg/injection, schedule: Q01DX001 (ip), vehicle: other 93 % of control | dose: 400.0 mg/kg/injection, schedule: Q04DX003 (ip), vehicle: other 113 % of control

C[n+]1cccc(C(=O)NN=C2CCCCC2)c1
inactive: [15] 93 % of control | [17] 102 % of control | [18] 94 % of control

CCCCCCCCCCCCCCCCCc1nc(N)nc(N(C)C)n1
inactive: dose: 25.0 mg/kg/injection, schedule: Q04DX003 (ip), vehicle: saline with Tween-80 97 % of control | dose: 50.0 mg/kg/injection, schedule: Q04DX003 (ip), vehicle: saline with Tween-80 96 % of control | [16] 97 % of control

CCC[n+]1cccc(C#N)c1
inactive: dose: 37.5 mg/kg/injection, schedule: Q04DX003 (ip), vehicle: saline 97 % of control | dose: 75.0 mg/kg/injection, schedule: Q01DX001 (ip), vehicle: saline 94 % of control | dose: 75.0 mg/kg/injection, schedule: Q04DX003 (ip), vehicle: saline 100 % of control | dose: 150.0 mg/kg/injection, schedule: Q01DX001 (ip), vehicle: saline 103 % of control

CSC(N)=S
inactive: [19] 96 % of control | dose: 50.0 mg/kg/injection, schedule: Q04DX003 (ip), vehicle: saline 97 % of control | [12] 94 % of control | [13] 99 % of control | [14] 99 % of control
